These results are taken from BindingDB's records for doi:10.1016/j.bmcl.2007.04.009 (Bristol-Myers Squibb, 2007).

The test addresses T1, Fatty-acid amide hydrolase 1 (Homo sapiens, UniProt O00519).
T1 sequence (O00519 whole entry): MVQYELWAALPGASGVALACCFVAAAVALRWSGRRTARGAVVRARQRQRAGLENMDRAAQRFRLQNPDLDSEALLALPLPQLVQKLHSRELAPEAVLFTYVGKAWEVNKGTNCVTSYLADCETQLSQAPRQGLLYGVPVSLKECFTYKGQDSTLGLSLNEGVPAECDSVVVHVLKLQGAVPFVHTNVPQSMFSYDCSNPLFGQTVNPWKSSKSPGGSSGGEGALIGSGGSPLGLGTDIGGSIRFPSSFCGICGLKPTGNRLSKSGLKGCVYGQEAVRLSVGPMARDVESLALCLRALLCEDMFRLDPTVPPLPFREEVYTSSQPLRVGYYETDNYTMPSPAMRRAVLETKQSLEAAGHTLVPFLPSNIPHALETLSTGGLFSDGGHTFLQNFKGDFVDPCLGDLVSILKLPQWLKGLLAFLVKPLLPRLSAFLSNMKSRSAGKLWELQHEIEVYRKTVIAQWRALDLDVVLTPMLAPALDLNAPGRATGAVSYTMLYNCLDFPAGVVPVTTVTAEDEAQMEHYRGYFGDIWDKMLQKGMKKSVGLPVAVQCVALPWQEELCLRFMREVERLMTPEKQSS
In words: FAAH Inhibition Assay. The settings on record: pH 9; 22 °C. The protocol:
FAAH Inhibition Assay [3H]Ethanolamine produced from [3H]AEA hydrolysis was used to calculate FAAH activity and was measured by scintillation counting of the aqueous phase after extraction of the incubation mixture. Data were expressed as the percentage of [3H]-ethanolamine formed versus vehicle, after subtraction of the background radioactivity determined in the presence of arachidonyl trifluoromethyl ketone (ATFMK), an inhibitor of FAAH. IC50 values were determined using a four-parameter logistic equation for dose-response curves.

As usually defined, the IC50 is the concentration that inhibits the measured activity by half. Read a high IC50 as weaker potency. For the compound `CCOC(=O)C(C)CCCCCn1c(C)nc(-c2ccccc2)c1-c1ccccc1` (racemic) [D, L mixtures], half-maximal inhibition (IC50) was put at 130 nM. In other words, the sub-micromolar range.

`CCOC(=O)C(CCCCCn1c(C)nc(-c2ccccc2)c1-c1ccccc1)C(C)C` (racemic) [D, L mixtures] showed an IC50 of more than 100000 nM. In turn, `CCOC(=O)C(CC)CCCCCn1c(C)nc(-c2ccccc2)c1-c1ccccc1` (centres undefined) [D, L mixtures] showed an IC50 of 9900 nM. For `CCOC(=O)CCCCCCCn1c(CC)nc(-c2ccccc2)c1-c1ccccc1` [ethyl 8-(2-ethyl-4,5-diphenyl-1H-imidazol-1-yl)octanoate] the value was 31 nM.
